From PubChem BioAssay (NCI) come the findings set out here.

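Each compound was tested at five concentrations against cells in 96-well plates for 48 hours. Abbreviation: GI50, concentration required for 50% inhibition of growth. TGI: concentration producing complete growth inhibition.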

The subject of one experiment is UO-31 renal. The experiment is described as follows: NCI tumour cell line growth inhibition, 48 h.
`CCC1(C)N=C(c2cnccn2)NN1c1ccc(Cl)cc1` (stereo not drawn): the TGI is over 100 µM. `CC1Cn2c(nc3ccccc32)NC1=O` (stereo not drawn) gave a TGI of over 100 µM. In turn, `C/C=C/C(O)P1(=O)N(Cc2ccccc2)[C@@H]2CCCC[C@H]2N1Cc1ccccc1` (stereo partly drawn) had a TGI of over 25 µM.

The test system of a further experiment is OVCAR-5 ovarian. The experiment is described as follows: NCI tumour cell line growth inhibition, 48 h.
`CCC1(C(=O)OC(C)(C)C)OC12C(C)CCCC2C` (stereo not drawn) returned a TGI of over 100 µM. Still for that read-out and setting: then `Cc1ccc(-c2cc(N)n(-c3nc4c(c(=O)n(C)c(=O)n4C)n3C)n2)cc1`, with over 100 µM; and `O=C(Cc1ccccc1)NN1C(=O)/C(=C\c2cccc(O)c2)SC1=Nc1ccccc1`, with over 100 µM.

The molecule `CN(C)c1ccc(C2SCC(=O)N2NS(=O)(=O)c2cccc(C(=O)O)c2)cc1` (stereo not drawn) displayed a TGI of over 100 µM. Same read-out and setting: the result for `CC1CCOc2ccc(cc2)C=Nc2ccc(cc2)CCc2ccc(cc2)N=Cc2ccc(cc2)OCC1` (stereo not drawn) reads over 100 µM. On the same count and under the same terms, the result for `COC(=O)[C@H](Cc1ccccc1)NC(=O)[C@H](Cc1ccccc1)NC(=O)[C@@H]1CCCN1C(=O)N[C@H]1C2C=CC(C2)C1C(=O)N1CCC[C@H]1C(=O)N[C@@H](C)C(=O)N[C@H](C(=O)OC)C(C)C` (stereo partly drawn) reads over 100 µM. The same measure, in the same setting: the result for `O=C1c2ccccc2-c2nc(-c3cccc([N+](=O)[O-])c3)nnc21` reads 50 µM. The molecule `CNC(=O)Oc1ccc(-c2cn3cc(OC(=O)NC)ccc3n2)cc1` yielded a TGI of over 100 µM. The same measure, in the same setting: the result for `CC(=O)N1N=C(c2ccc3ccccc3c2O)CC1C(=O)c1ccco1` (stereo not drawn) reads over 100 µM; that for `N#Cc1nc(-c2cccs2)oc1N`, over 100 µM. The molecule `NC(=O)NNC(=O)c1nc[nH]c1[N+](=O)[O-]` gave a TGI of over 100 µM. Still for that read-out and setting: the result for `O=c1c2c([N+](=O)[O-])cccc2nc2[nH]c3ccccc3n12` reads over 75 µM; that for `Cc1cc(C)cc(Nc2cc(=O)[nH]c(=O)[nH]2)c1`, over 100 µM; that for `Nn1c(CCCCCCCCc2nnc(COc3ccc(Cl)cc3)n2N)nnc1COc1ccc(Cl)cc1`, over 100 µM. The same measure, in the same setting: the result for `O=C(O)c1ccc(S(=O)(=O)c2ccccc2[N+](=O)[O-])cc1` reads over 10 µM; that for `CC1(CF)SCc2nc3ccccc3n21` (stereo not drawn), over 100 µM; that for `Nc1cccc(Nc2nc3ccccc3nc2NS(=O)(=O)c2ccccc2)c1`, over 100 µM. The same measure, in the same setting: then `COC(=O)C1=CC(=O)OC1(OO)c1ccccc1` (stereo not drawn), with over 100 µM; and `CN(C)Cc1cc(C(=O)/C=C/c2ccccc2Cl)cc(CN(C)C)c1O`, with 40.2 µM; and `O=C1NC(N/N=C/C(O)C(O)C(O)CO)=N/C1=C\c1ccco1` (stereo not drawn), with over 100 µM.

On to `Cc1ccn2c(=O)cc(-c3ccccc3)nc2c1`, for which the TGI was over 100 µM. Still for that read-out and setting: then `O=c1[nH]nc(Cc2ccc([N+](=O)[O-])cc2)n1CCO`, with over 100 µM; and `Cc1cc(C2(O)C=C(C(C)(C)C)C(=O)C(C(C)(C)C)=C2)c(C)cc1C1(O)C=C(C(C)(C)C)C(=O)C(C(C)(C)C)=C1`, with over 100 µM. In the case of `O=C(O)CC[N+]1=CCC(c2ccccc2)(c2ccccc2)O1`, the TGI is over 100 µM.

As to `CC1=NN(c2ccc(S(=O)(=O)O)cc2)C2(C1)SCC(=O)N2c1nc2ccccc2s1` (stereo not drawn), the TGI is over 100 µM. For `CCc1ccc2oc(-c3cc(O)c(-c4nc5cc(CC)ccc5o4)cc3O)nc2c1`, the TGI was over 100 µM. Same read-out and setting: then `CCOC(=O)/C=C(/C(=O)OCC)n1ccc(N)nc1=O`, with over 100 µM; and `CCCSc1ccc2[nH]c(/N=C/c3ccco3)cc2c1`, with over 100 µM. Same read-out and setting: the result for `Cc1ccc2c(c1)[nH]c1cc(C(F)(F)F)ccc1[p+]2=O` (stereo not drawn) reads over 100 µM; that for `CCC1(C)N=C(c2cnccn2)NN1c1ccc(Cl)cc1` (stereo not drawn), over 100 µM. The same measure, in the same setting: the result for `CC1Cn2c(nc3ccccc32)NC1=O` (stereo not drawn) reads over 100 µM; that for `C/C=C/C(O)P1(=O)N(Cc2ccccc2)[C@@H]2CCCC[C@H]2N1Cc1ccccc1` (stereo partly drawn), over 25 µM.

For a further experiment, the system named is SW-620 colon. The experiment is described as follows: NCI tumour cell line growth inhibition, 48 h.
Molecule `CCC1(C(=O)OC(C)(C)C)OC12C(C)CCCC2C` (stereo not drawn) yielded a TGI of over 100 µM. `O=C(Cc1ccccc1)NN1C(=O)/C(=C\c2cccc(O)c2)SC1=Nc1ccccc1` came in with a TGI of over 100 µM. Same read-out and setting: the result for `CN(C)c1ccc(C2SCC(=O)N2NS(=O)(=O)c2cccc(C(=O)O)c2)cc1` (stereo not drawn) reads over 100 µM; that for `CC1CCOc2ccc(cc2)C=Nc2ccc(cc2)CCc2ccc(cc2)N=Cc2ccc(cc2)OCC1` (stereo not drawn), over 100 µM; that for `COC(=O)[C@H](Cc1ccccc1)NC(=O)[C@H](Cc1ccccc1)NC(=O)[C@@H]1CCCN1C(=O)N[C@H]1C2C=CC(C2)C1C(=O)N1CCC[C@H]1C(=O)N[C@@H](C)C(=O)N[C@H](C(=O)OC)C(C)C` (stereo partly drawn), over 100 µM.

Take `O=C1c2ccccc2-c2nc(-c3cccc([N+](=O)[O-])c3)nnc21`: the TGI is 62.8 µM. On the same count and under the same terms, the result for `CNC(=O)Oc1ccc(-c2cn3cc(OC(=O)NC)ccc3n2)cc1` reads over 100 µM; that for `CC(=O)N1N=C(c2ccc3ccccc3c2O)CC1C(=O)c1ccco1` (stereo not drawn), over 100 µM; that for `N#Cc1nc(-c2cccs2)oc1N`, over 100 µM.

With `NC(=O)NNC(=O)c1nc[nH]c1[N+](=O)[O-]`, the TGI was over 100 µM. On the same count and under the same terms, the result for `O=c1c2c([N+](=O)[O-])cccc2nc2[nH]c3ccccc3n12` reads over 75 µM. As to `Cc1cc(C)cc(Nc2cc(=O)[nH]c(=O)[nH]2)c1`, the TGI is over 100 µM. The same measure, in the same setting: the result for `Nn1c(CCCCCCCCc2nnc(COc3ccc(Cl)cc3)n2N)nnc1COc1ccc(Cl)cc1` reads over 100 µM; that for `O=C(O)c1ccc(S(=O)(=O)c2ccccc2[N+](=O)[O-])cc1`, over 10 µM.

`CC1(CF)SCc2nc3ccccc3n21` (stereo not drawn) had a TGI of over 100 µM.

Regarding `C[C@]12CCc3nc(Nc4ccccc4)sc3C1=CC[C@@H]1[C@@H]2CC[C@]2(C)/C(=N/NC(N)=S)CC[C@@H]12`, the GI50 was 3.09 µM and the TGI is over 100 µM. In the case of `COC(=O)C1=C2SCc3cccc(c3)CSC3=C(C(=O)OC)SC(=C(S2)S1)S3`, the TGI is over 100 µM. Still for that read-out and setting: then `Nc1cccc(Nc2nc3ccccc3nc2NS(=O)(=O)c2ccccc2)c1`, with 44.2 µM; and `COC(=O)C1=CC(=O)OC1(OO)c1ccccc1` (stereo not drawn), with over 100 µM; and `CN(C)Cc1cc(C(=O)/C=C/c2ccccc2Cl)cc(CN(C)C)c1O`, with 17 µM. The same measure, in the same setting: the result for `O=C1NC(N/N=C/C(O)C(O)C(O)CO)=N/C1=C\c1ccco1` (stereo not drawn) reads over 100 µM; that for `Cc1ccn2c(=O)cc(-c3ccccc3)nc2c1`, over 100 µM. Same read-out and setting: the result for `O=c1[nH]nc(Cc2ccc([N+](=O)[O-])cc2)n1CCO` reads over 100 µM; that for `Cc1cc(C2(O)C=C(C(C)(C)C)C(=O)C(C(C)(C)C)=C2)c(C)cc1C1(O)C=C(C(C)(C)C)C(=O)C(C(C)(C)C)=C1`, over 100 µM; that for `O=C(O)CC[N+]1=CCC(c2ccccc2)(c2ccccc2)O1`, over 100 µM. With `CC1=NN(c2ccc(S(=O)(=O)O)cc2)C2(C1)SCC(=O)N2c1nc2ccccc2s1` (stereo not drawn), the TGI is over 100 µM. In turn, `CCc1ccc2oc(-c3cc(O)c(-c4nc5cc(CC)ccc5o4)cc3O)nc2c1` displayed a TGI of over 100 µM.
